Experimental data from US20230278972A1, “SUBSTITUTED HALOALKYL SULFONANILIDE HERBICIDES” (FMC Corporation, priority 2020, published 2023).

Key:
kochia (Bassia scoparia) = experiment: Test A preemergence, kochia; type: in vivo; conditions: Bassia scoparia, pre-emergence, 240 h, Preemergence
Method in brief: (§1)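 Compounds in non-phytotoxic solvent with surfactant. Soil: loam/sand. Preemergence via directed soil spray after seeding; postemergence on seedlings 2–10 cm, one- to two-leaf.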

[1] = test system: ducksalad (Heteranthera limosa); experiment: Test B flooded paddy test, ducksalad; conditions: 336 h, read-out: Plant response rating, Ducksalad
[2] = test system: ragweed (common ragweed, Ambrosia artemisiifolia); experiment: Test A preemergence, ragweed; type: in vivo; conditions: Ambrosia artemisiifolia, pre-emergence, 240 h, Preemergence
Method in brief: as §1

[3] = test system: Ryegrass, Italian (Italian ryegrass, Lolium multiflorum); experiment: Test A preemergence, Ryegrass, Italian; type: in vivo; conditions: Lolium multiflorum, pre-emergence, 240 h, Preemergence
Method in brief: as §1

[4] = test system: ragweed (common ragweed, Ambrosia artemisiifolia); experiment: Test A postemergence, ragweed; type: in vivo; conditions: Ambrosia artemisiifolia, post-emergence, 240 h, Postemergence, 0 to 100 scale (0 no effect, 100 complete control), read-out: Plant response rating, Ragweed
Method in brief: as §1

In the case of `Cc1cc(Cl)c(NS(=O)(=O)C(F)(F)F)cc1C(=O)N1CCOCC1` [Compound 16, N-[2-Chloro-4-methyl-5-(4-morpholinylcarbonyl)phenyl]-1,1,1-trifluoromethanesulfonamide], the pest or weed control at 125 g/ha (kochia (Bassia scoparia); 125 g ai/ha, visual injury on 0 to 100 scale (0 no effect, 100 complete control), approximately 10 days, read-out: Kochia plant response rating) is reported as 90%, the pest or weed control at 500 g/ha (kochia (Bassia scoparia); 500 g ai/ha, 0 to 100 scale (0 no effect, 100 complete control), read-out: Plant response rating, Kochia) is reported as 90% and the pest or weed control at 250 g/ha [1] is reported as 40%. The pest or weed control at 125 g/ha ([2]; 125 g ai/ha, visual injury on 0 to 100 scale (0 no effect, 100 complete control), approximately 10 days, read-out: Ragweed plant response rating) was 80%, the pest or weed control at 500 g/ha ([2]; 500 g ai/ha, 0 to 100 scale (0 no effect, 100 complete control), read-out: Plant response rating, Ragweed) was 100% and the pest or weed control at 125 g/ha ([3]; 125 g ai/ha, visual injury on 0 to 100 scale (0 no effect, 100 complete control), approximately 10 days, read-out: Ryegrass, Italian plant response rating) was 90%. It also gave a pest or weed control at 500 g/ha ([3]; 500 g ai/ha, 0 to 100 scale (0 no effect, 100 complete control), read-out: Plant response rating, Ryegrass, Italian) of 100%, a pest or weed control at 125 g/ha ([4]; 125 g ai/ha, visual injury approx. 10 days) of 80% and a pest or weed control at 500 g/ha ([4]; 500 g ai/ha, visual injury, approx. 10 days) of 90%.
